The values that follow come from article PMC3083246 (Journal of medicinal chemistry, 2011).

Assay [1] deals with OCI-AML-1 cell lines (acute myeloid leukemia). Nature of the assay: Anticancer activity in cell-based assay. To be noted: AML1, read-out: IC50, AML-1.
The target of assay [2] is T1, Mt ODCase (Methanothermobacter thermautotrophicus, UniProt O26232). Nature of the assay: Reversible, competitive inhibition of Mt ODCase. Type of assay: biochemical, Methanobacterium thermoautotrophicum.
Assay [3] deals with T2, human ODCase (Homo sapiens, UniProt P11172). Nature of the assay: Reversible, competitive inhibition of human ODCase. It counts as biochemical.
Assay [4] has as its target ODCase (Methanothermobacter thermautotrophicus, UniProt O26232). Nature of the assay: Mass spectral analysis of enzyme-inhibitor complexes. Set-up: species or system Methanobacterium thermoautotrophicum. To be noted: enzyme incubated with inhibitor; identical results with human ODCase.
The target in assay [5] is T1, Mt ODCase. Nature of the assay: Time-dependent inactivation of Mt ODCase. It counts as biochemical, Methanobacterium thermoautotrophicum.
Assay [6] deals with T2, human ODCase. To be noted: read-out: ODCase Ki, human; competitive inhibition; ref [15],[16],[17]; cited from earlier work.
For assay [7], the target named is T1, Mt ODCase. To be noted: cited from earlier work.
Assay [8] relates to CHO. To be noted: read-out: IC50, CHO; ref [21]; cited from earlier work.
Assay [9] concerns Plasmodium falciparum (3D7). The conditions noted are these: read-out: IC50, Pf (3D7); ref [21]; cited from earlier work.
Assay [10] concerns OCI-AML-1 cell lines (acute myeloid leukemia). To be noted: read-out: IC50, AML-1; ref [17]; cited from earlier work.
Assay [11] has as its target T1, Mt ODCase. The conditions noted are these: cited from earlier work. The source holds these as a separate data set.
For assay [12], the system named is Plasmodium falciparum (3D7). As to the kind of experiment: Antimalarial activity in cell-based assay. To be noted: 3D7, read-out: IC50, Pf (3D7).
[13] abbreviates: ODCase Ki, Mt, competitive inhibition, ITC, 55°C.

“And” between values parts separate entries of the source, which are not always exact repeats. Equal values may be shown once. Read-outs that look alike come from different tables or passages of the source.

Broadly, the IC50 is the concentration needed to halve the response being measured. `O=c1cc(I)n([C@@H]2O[C@H](CO)[C@@H](O)[C@H]2F)c(=O)[nH]1` [Compound 27, 2′-Deoxy-2′-fluoro-6-iodo-β-D-uridine]: the IC50 in assay [1] was > 50 µM.
As for `NC(=O)c1cc(=O)[nH]c(=O)n1[C@@H]1O[C@H](COP(=O)(O)O)[C@@H](O)[C@H]1F` [Compound 36, 6-Amido-2′-deoxy-2′-fluoro-β-D-uridine-5′-O-monophosphate], the Ki was > 3 mM and 3.32 mM in [2] (Ki, Mt ODCase, text values in mM); 3.32 ± 0.176 mM in [2] (setting [13]); > 3000 µM in assay [3].
For orientation: kinact means the rate constant of inactivation at saturating inhibitor. Turning to `N#Cc1cc(=O)[nH]c(=O)n1[C@@H]1O[C@H](COP(=O)(O)O)[C@@H](O)[C@H]1F` [Compound 35, 6-Cyano-2′-deoxy-2′-fluoro-β-D-uridine-5′-O-monophosphate], the Ki was 0.037 ± 0.0025 mM in assay [2] (setting [13]) and > 2000 µM in assay [3]. The “enzyme-inhibitor complex by mass spectrometry” value in assay [4] is “covalent complex”. Moreover, the KI (inactivation) in [5] (read-out: KI, equilibrium inhibition constant of inactivation, Mt ODCase, time-dependent inactivation) was 30000 ± 6000 µM. In addition, the kinact in [5] (read-out: kinact, Mt ODCase) was 0.000556 s⁻¹. Also, in assay [3] (up to a concentration of 2 mM), the “inhibition of the catalytic activity of human ODCase” value is reported as “did not inhibit”.
`N#Cc1cc(=O)[nH]c(=O)n1[C@@H]1O[C@H](COP(=O)(O)O)[C@@H](O)[C@H]1O` [Compound 11, 6-CN-UMP]: the Ki in assay [6] is 204 ± 11 µM; in assay [7] (read-out: ODCase Ki, Mt, competitive inhibition, ref [15],[16],[17]), 0.0286 ± 0.0021 mM.
For the molecule `O=c1cc(I)n([C@@H]2O[C@H](CO)[C@@H](O)[C@H]2O)c(=O)[nH]1` [Compound 6-I-uridine, 6-iodouridine], the IC50 is 366 ± 45 µM in assay [8] and 6.2 ± 0.7 µM in assay [9].
Consider `N#Cc1cc(=O)[nH]c(=O)n1[C@@H]1O[C@H](CO)[C@@H](O)[C@H]1F` [Compound 29, 6-Cyano-2′-deoxy-2′-fluoro-β-D-uridine], for which, in assay [1], the IC50 was > 50 µM.
For the molecule `[N-]=[N+]=Nc1cc(=O)[nH]c(=O)n1[C@@H]1O[C@H](CO)[C@@H](O)[C@H]1F` [Compound 28, 6-Azido-2′-deoxy-2′-fluoro-β-D-uridine], the IC50 in assay [1] is > 50 µM.
The same measure, in the same setting: the figure for `NC(=O)c1cc(=O)[nH]c(=O)n1[C@@H]1O[C@H](CO)[C@@H](O)[C@H]1F` [Compound 30, 6-Amido-2′-deoxy-2′-fluoro-β-D-uridine] is > 50 µM.
Regarding `O=c1cnn([C@@H]2O[C@H](CO)[C@@H](O)[C@H]2O)c(=O)[nH]1` [Compound 5, 6-azauridine], in assay [10], the half-maximal inhibitory concentration (IC50) was 6.1 µM.
Regarding `NC(=O)c1cc(=O)[nH]c(=O)n1[C@@H]1O[C@H](COP(=O)(O)O)[C@@H](O)[C@H]1O` [Compound 6-CONH2-UMP, 6-Amido-UMP], the Ki was 1.32 ± 0.04 mM in assay [7] (read-out: Ki, Mt ODCase, text value in mM, ref [15],[21]) and 0.00132 ± 4e-05 mM in assay [7] (read-out: ODCase Ki, Mt, competitive inhibition, ref [15],[21]).
Consider `N#Cc1cn([C@@H]2O[C@H](COP(=O)(O)O)[C@@H](O)[C@H]2F)c(=O)[nH]c1=O` [Compound 37, 5-Cyano-2′-deoxy-2′-fluoro-β-D-uridine-5′-O-monophosphate], for which the Ki turned out to be 0.36 ± 0.023 mM in [2] (setting [13]) and 759 ± 88 µM in assay [3].
For `N#Cc1cn([C@@H]2O[C@H](CO)[C@@H](O)[C@H]2F)c(=O)[nH]c1=O` [Compound 31, 5-Cyano-2′-deoxy-2′-fluoro-β-D-uridine], in assay [1], the IC50 is > 50 µM.
Take `O=c1cc(I)n([C@@H]2O[C@H](COP(=O)(O)O)[C@@H](O)[C@H]2O)c(=O)[nH]1` [Compound 10, 6-iodo-UMP]: the “kobs/[I], M. thermoautotrophicum ODCase” value in assay [11] (irreversible inactivation, ref [16],[22]) is 260000 M⁻¹ s⁻¹. Besides, in assay [11] (text value for the ribofuranosyl analog, ref [16],[22]), the kinact was 260000 h⁻¹. The “second-order rate constant relative to 2′-deoxy-2′-fluoro analog 33” value in assay [5] (higher than 33) was ~ 5 orders of magnitude.
For the molecule `[N-]=[N+]=Nc1c(F)c(=O)[nH]c(=O)n1[C@@H]1O[C@H](COP(=O)(O)O)[C@@H](O)[C@H]1O` [Compound 12, 6-azido-5-fluoro-UMP], the “kinact, Mt ODCase” value in [11] (first-order rate of inactivation, ref [17]) is 41 ± 3 h⁻¹. Besides, the Ki in [11] (read-out: KI, Mt ODCase, time-dependent inactivation, ref [17]) was 18.2 ± 0.0036 µM.
`CCN(CC)CCCC(C)Nc1ccnc2cc(Cl)ccc12` (centres unmarked) [Chloroquine]: the IC50 in [12] is 0.022 ± 0.002 µM.
